# Source: US8765690B2, “Treatment of cancer with glufosfamide in patients not receiving insulin therapy” (Threshold Pharmaceuticals, Inc., priority 2007, dated 2014)
# Where “and” joins values, the source holds several entries; their conditions need not be identical. Identical values can stand only once. Counter-ions that a name gives are not always drawn.
# Experiments:
# [1] = tested on: gemcitabine resistant metastatic pancreatic cancer; experiment: Phase 3 clinical trial of glufosfamide versus best supportive care, overall survival; type: in vivo, human; details: for Actual overall survival: individual diabetic patient, named GLD given orally in combination with glufosfamide 4500 mg/m^2 over 6 hours once every 3 weeks; for relative risk for overall survival in Group 1 and Group 2 patients: glufosfamide vs BSC
# Experimental: Glufosfamide is a prodrug of an alkylating agent useful in the treatment of cancer. A multi-center, randomized, open-label phase 3 clinical trial was conducted to evaluate the safety and efficacy of glufosfamide in treating gemcitabine resistant metastatic pancreatic cancer as measured by overall survival compared to BSC (best supportive care). Three hundred and three patients were randomized to the trial: 148 patients were randomized to the glufosfamide arm (n=148, Group 1) and 155 to BSC (n=155, Group 2).
# Patients in Group 1 were administered glufosfamide for up to 42 weeks. Glufosfamide was administered intravenously over 6 hours once every 3 weeks at 4500 mg/m^2 for up to 14 doses.
# One-quarter of the dose was infused over 30 minutes and the remainder over the following five and one-half hours.
# To assess the efficacy of glufosfamide treatment, patients in Group 1 and Group 2 were not administered any medication known to have antitumor effects other than glufosfamide, e.g., the patients were not administered any other chemotherapy or systemic cytotoxic/cytostatic agents. However, other appropriate supportive measures and concomitant medications not known to have antitumor effects, such as analgesics, antibiotics, transfusions, hematopoietic colony-stimulating factors (as therapy but not as prophylaxis), erythropoietin, and megestrol acetate for appetite stimulation were administered when appropriate.
# Tumor assessment was performed at baseline and once every 6 weeks for the first 24 weeks and then once every 9 weeks. The primary efficacy indicator was the overall survival in Group 1 compared to that in Group 2.
# Seven diabetic patients (Group 1A) having gemcitabine resistant pancreatic cancer were treated with glufosfamide for 2-11 cycles in combination with various glucose lowering drugs (GLDs) other than insulin (see Table 2 below). Glufosfamide was administered intravenously over 6 hours, once every 3 weeks, at 4500 mg/m^2. The GLD was administered orally, once every day or qd, […] prior to the first glufosfamide administration; except that, the GLD was administered to patient no. 6 three times daily or tid. […] Tumor assessment was performed at baseline and once every 6 weeks for the first 24 weeks and then once every 9 weeks. Efficacy outcomes were evaluated based on comparing the overall median survival in Group 1A with that in Group 2A. The median overall survival in the Group 1A patients was 418 days (95% CI; 85 days-643 days) compared to 84 days (95% CI; 45 days-102 days) for those in group 2A (FIG. 3).
# MiaPaCa-2-RFP tumor = experiment: Surgical orthotopic implantation MiaPaCa-2-RFP pancreatic tumor model in nude mice, survival; type: in vivo, NCr nu/nu mice
# Experimental: A total of sixty male NCr nu/nu mice, 5-6 weeks old, were used in the study. Original breeding pairs were purchased from Taconic, Germantown, N.Y. Test animals were bred and maintained in a HEPA filtered environment for the experiment. Cages, food and bedding were autoclaved. The animal diets were obtained from PMI Nutrition International Inc. (Brentwood, Mo.).
# RFP gene transduction of MiaPaCa-2 cells: For RFP gene transduction, 20% confluent MiaPaCa-2 cells (ATCC, Rockville, Md.) were incubated with a 1:1 precipitated mixture of retroviral supernatants of PT67 cells and RPMI 1640 for 72 h. Fresh medium was replenished at this time. MiaPaCa-2 cells were harvested by trypsin-EDTA 72 h posttransduction and subcultured at a ratio of 1:15 into selective medium that contained 200 μg/ml G418. The level of G418 was increased to 1000 μg/ml stepwise. The brightest MiaPaCa-2 cell clones expressing RFP were selected, combined, and then amplified and transferred by conventional culture methods.
# Subcutaneous Xenografts: Tumor stocks were made by subcutaneously injecting MiaPaCa-2-RFP cells at a concentration of 5×10^6 cells/200 μl into the flank of nude mice. see e.g., Bouvet et al. Cancer Res., 2002, 62, 1534-40 incorporated herein by reference. The strong RFP expression of tumors grown in the subcutis of mice was confirmed before harvest. The tumor tissues harvested from s.c growth in nude mice were inspected, and any grossly necrotic or suspected necrotic or non-RFP tumor tissues were removed. Tumor tissues were subsequently cut into small fragments of approximately 2 mm^3. […]
# Statistical methods used in efficacy evaluation: Tumor volumes and tumor weights were compared using the Student's t-test with an α=0.05. Metastatic frequency of all groups were analyzed with Fisher's exact test with an α=0.05. Comparison of animal survival time between each treatment group and untreated control was analyzed using the Log-rank analysis with an α=0.05.
structure (smiles),measurement,setting,value
COc1ccc(Cl)cc1C(=O)NCCc1ccc(S(=O)(=O)NC(=O)NC2CCCCC2)cc1 [Glibenclamide],Actual overall survival,[1],85 and 643
Cc1ccc(S(=O)(=O)NC(=O)NN2CC3CCCC3C2)cc1 (stereo not shown) [Gliclazide],Actual overall survival,[1],145 and 476+
CCC1=C(C)CN(C(=O)NCCc2ccc(S(=O)(=O)NC(=O)N[C@H]3CC[C@H](C)CC3)cc2)C1=O [Glimepiride],Actual overall survival,[1],54
Cc1cnc(C(=O)NCCc2ccc(S(=O)(=O)NC(=O)NC3CCCCC3)cc2)cn1 [Glipizide],Actual overall survival,[1],418
CN(CCOc1ccc(CC2SC(=O)NC2=O)cc1)c1ccccn1 (stereo not shown) [Rosiglitazone maleate],Actual overall survival,[1],479
"O=P(NCCCl)(NCCCl)O[C@@H]1O[C@H](CO)[C@@H](O)[C@H](O)[C@H]1O [glufosfamide, beta-D-glucosyl-ifosfamide mustard]",median overall survival,"[1]; Group 1 (n=148), glufosfamide 4500 mg/m^2 i.v. over 6 hours once every 3 weeks, all randomized patients",105 days
same,median overall survival,[1]; Group 1 patients (n=123) not administered insulin prior to first glufosfamide administration,115 days
same,relative risk for overall survival in Group 1 and Group 2 patients,"[1]; diabetic patients receiving glucose lowering drug other than insulin, p=0.020",0.24
same,relative risk for overall survival in Group 1 and Group 2 patients,"[1]; proportional hazards model stratified by KPS, all patients, p=0.187",0.848
same,relative risk for overall survival in Group 1 and Group 2 patients,"[1]; patients not administered insulin prior, p=0.048",0.761
same,benefit from the administration of glufosfamide,"[1]; patients receiving a glucose lowering drug other than insulin, compared with patients not receiving such drugs",more benefit
same,benefit from the administration of glufosfamide,[1]; patients receiving insulin,no benefit or less benefit
same,median overall survival,"[1]; seven diabetic Group 1 patients (Group 1A) on glufosfamide plus a glucose lowering drug other than insulin, no prior insulin",418 days
same,median overall survival,MiaPaCa-2-RFP tumor; glufosfamide 50 mg/kg i.v. qd x 7 alone,26 days
same,median overall survival,"MiaPaCa-2-RFP tumor; glufosfamide 50 mg/kg i.v. qd x 7 in combination with glimepiride 12 mg/kg p.o. qd x 14, log rank p<0.01",35 days
same,survival improvement compared to glufosfamide administered alone,"MiaPaCa-2-RFP tumor; glufosfamide 50 mg/kg in combination with glimepiride 12 mg/kg, FIG. 4",more effective in extending survival
